Test results reported in US9814714B2, “Kinase modulation, and indications therefor” (Plexxikon Inc., priority 2015, dated 2017).

Legend:
[1] = system: pERK in COLO829 cells (BRAF^V600E, heterozygous); experiment: Phospho-ERK AlphaScreen assay, pERK inhibition in COLO829; type: cell-based; conditions: Homo sapiens, COLO-829, 1 h, read-out: pERK inhibition IC50 COLO829
Protocol: (§1) Phospho-ERK AlphaScreen® assay: The degree of ERK phosphorylation was determined using an AlphaScreen® assay where an increase in ERK1/2 phosphorylation at Thr202/Tyr204 brought the donor and acceptor AlphaScreen® beads into close proximity, generating a signal for quantification. To determine the effects of compound treatment on phosphorylation of ERK1/2, cells were plated in a 96-well plate and treated with an 8-point titration of compound for one hour at 37° C. before lysis. To detect pERK, cell lysates were incubated with streptavidin-coated AlphaScreen® donor beads, anti-mouse IgG AlphaScreen® acceptor beads, a biotinylated anti-ERK1/2 rabbit antibody, and a mouse antibody that recognizes ERK1/2 only when it is phosphorylated on Thr202 and Tyr204. The biotinylated ERK1/2 antibody binds to both the streptavidin-coated AlphaScreen® donor beads and to ERK1/2 (regardless of its phosphorylation state), and the phospho-ERK1/2 antibody binds to the acceptor beads and to ERK1/2 that is phosphorylated at Thr202/Tyr204. An increase in ERK1/2 phosphorylation at Thr202/Tyr204 brings the donor and acceptor AlphaScreen® beads into close proximity, generating a signal that can be quantified on an EnVision reader (Perkin Elmer).
(§2) Using AlphaScreen® technology, the ability of Formula I to affect the phosphorylation of ERK and MEK in the cells was measured quantitatively. Following treatment with compound, the cells were lysed, and a sample of the lysate was transferred to an assay plate. The lysate was mixed with antibodies directed against total ERK/MEK, antibodies that recognize specific phosphorylation sites on ERK/MEK, AlphaScreen® anti-mouse IgG Acceptor beads, and Streptavidin Donor beads. Upon excitation of the donor beads with laser light at 680 nm, singlet oxygen was produced. This singlet oxygen was rapidly quenched, unless the AlphaScreen® Acceptor beads were in close proximity, in which case a proximity signal can be measured at 580 nm. In the presence of phosphorylated ERK/MEK, there is a very strong proximity signal.
(§3) 1. One day before the assay, 50,000 cells were plated in each well of a 96-well tissue-culture-treated plate (Corning #3610) in a 50 μL volume. Cells were incubated at 37° C. overnight.
(§4) 2. Compounds were diluted in DMSO to 500× final concentration. Each compound was plated as an 8-point titration, using 1:3 dilutions in DMSO. The maximum concentration was about 5 mM.
(§5) 3. 1 μl of compound was added to each well of a 96-well polypropylene plate (Corning #3363). For A375, COLO829, SK-MEL-3, HCT116, and HT-29, the high control was DMSO, and the low control was 10 μM PLX4720 (CAS No. 918505-84-7). For B9 and IPC-298, the high control was 3.33 μM PLX4720, and the low control was DMSO. 4. 249 μL growth media was added to compounds, diluting them 250-fold. 5. […] The compound was incubated with the cells at 37° C. for one hour. 6. The media was aspirated, and the cells were lysed in 50 μL of ice-cold 1× Cell Lysis buffer. The plates were incubated on ice for 5 minutes to allow complete lysis of the cells. 7. A mixture of biotinylated donor antibody, acceptor antibody, and anti-mouse IgG AlphaScreen® acceptor beads in 1× AlphaLISA immunoassay buffer was prepared. 8. 5 μL of lysate was transferred to a 384-well assay plate (Perkin Elmer #6005359). 5 μL of the antibody and acceptor bead mixture was added. The plates were spinned.

[2] = system: pERK in HCT116 cells (KRAS^G13D); experiment: Phospho-ERK AlphaScreen assay, pERK activation in HCT116; type: cell-based; conditions: Homo sapiens, HCT-116, read-out: pERK activation EC50 HCT116
Protocol: as §1, §2, §3, §4, §5

[3] = system: pERK in B9 cells (HRAS^Q61L); experiment: Phospho-ERK AlphaScreen assay, pERK activation in B9; type: cell-based, murine; conditions: Mus musculus, read-out: pERK activation EC50 B9
Protocol: as §1, §2, §3, §4, §5

[4] = system: pERK in IPC-298 cells (NRAS^Q61L); experiment: Phospho-ERK AlphaScreen assay, pERK activation in IPC-298; type: cell-based, human; conditions: Homo sapiens, IPC-298, read-out: pERK activation EC50 IPC298
Protocol: as §1, §2, §3, §4, §5

[5] = system: pERK in A375 cells (BRAF^V600E, homozygous); experiment: Phospho-ERK AlphaScreen assay, pERK inhibition in A375; type: cell-based; conditions: Homo sapiens, A-375, 1 h, read-out: pERK inhibition IC50 A375
Protocol: as §1, §2, §3, §4, §5

[6] = target: NIH/3T3 cells stably expressing KIAA1549-BRAF fusions (Homo sapiens, UniProt P15056); experiment: BRAF fusion xenograft tumor growth; type: in vivo, balb/c nu/nu mice; conditions: three of the four KIAA1549-BRAF fusions; PLX4720 chow
Chain of NIH/3T3 cells stably expressing KIAA1549-BRAF fusions (P15056 448-766 limits assumed): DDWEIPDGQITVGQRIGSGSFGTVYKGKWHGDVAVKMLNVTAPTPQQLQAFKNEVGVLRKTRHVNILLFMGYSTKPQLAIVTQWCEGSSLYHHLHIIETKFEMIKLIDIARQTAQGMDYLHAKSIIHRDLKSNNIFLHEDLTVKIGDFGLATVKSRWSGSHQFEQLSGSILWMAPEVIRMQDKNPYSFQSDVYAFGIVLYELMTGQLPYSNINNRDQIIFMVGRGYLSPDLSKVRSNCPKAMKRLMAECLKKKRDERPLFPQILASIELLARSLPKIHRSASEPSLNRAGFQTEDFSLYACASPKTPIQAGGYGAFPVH
Protocol: NIH/3T3 (ATCC® CRL-1658™) cells stably expressing KIAA1549-BRAF fusions (Fusion-1, Fusion-2, Fusion-3, and Fusion-4) were injected into the flank of balb/c nu/nu mice. Tumor growth was measured with calipers. Ellipsoid tumor volume was calculated using the following formula: volume=½·length·width^2.

Row | Effect on xenograft tumor growth (in words) [6] | Compound | IC50 [1] [nM] | EC50 [2] [nM] | EC50 [3] [nM] | EC50 [4] [nM] | IC50 [5] [nM]
1 |  | CC(C)(C)c1nc(-c2cccc(NS(=O)(=O)c3c(F)cccc3F)c2F)c(-c2ccnc(N)n2)s1 [Dabrafenib, dabrafenib] | 5 | 3 | 10 | 10 | 1
2 | increased tumor growth | CCCS(=O)(=O)Nc1ccc(F)c(C(=O)c2c[nH]c3ncc(Cl)cc23)c1F [PLX4720, reference compound] |  |  |  |  | 
3 |  | CNC(=O)c1cc(Oc2ccc(NC(=O)Nc3ccc(Cl)c(C(F)(F)F)c3)cc2)ccn1 [Sorafenib, sorafenib] | 2000 | 86 | 25 | 19 | 4400
